# Patent publication US12291529B2, “Heterocyclic GLP-1 agonists” (Gasherbrum Bio, Inc., priority 2023, dated 2025)
# Tests used:
# FaSSIF solubility = format: physicochemical; details: FaSSIF buffer; for solubility at 4 h: 25 °C, fassif, thermodynamic from solid
# Method: Stock solution of test article and control compound (chlorpromazine, astemizole, and phenytoin) were prepared in DMSO at 10 mM. 50 μL each of stock solutions were dried down, followed by reconstitution to 1 mM with FaSSIF buffer in the well. The incubation plate was shaked at 25° C., 1,100 rpm for 4 hours. And then, the samples were filtered by using the vacuum manifold. 10 μL aliquots from each well was transferred to a new 96-well plate and adjust the volume to 80 μL with blank buffer. Using a mixture of H2O and acetonitrile containing internal standard (1:1) to dilute the sample 100-fold, 500-fold and 2,500-fold. The samples are evaluated by LC/MS/MS analysis. All compounds were tested in singlet.
# GLP-1 Receptor = GLP-1 Receptor (Homo sapiens, UniProt P43220); test: GLP-1R agonist cAMP stimulation assay (HEK293/GLP1R/CRE-LUC cells, Cisbio cAMP dynamic 2 kit); format: cell-based
# Sequence of GLP-1 Receptor (P43220 24-463, species assumed): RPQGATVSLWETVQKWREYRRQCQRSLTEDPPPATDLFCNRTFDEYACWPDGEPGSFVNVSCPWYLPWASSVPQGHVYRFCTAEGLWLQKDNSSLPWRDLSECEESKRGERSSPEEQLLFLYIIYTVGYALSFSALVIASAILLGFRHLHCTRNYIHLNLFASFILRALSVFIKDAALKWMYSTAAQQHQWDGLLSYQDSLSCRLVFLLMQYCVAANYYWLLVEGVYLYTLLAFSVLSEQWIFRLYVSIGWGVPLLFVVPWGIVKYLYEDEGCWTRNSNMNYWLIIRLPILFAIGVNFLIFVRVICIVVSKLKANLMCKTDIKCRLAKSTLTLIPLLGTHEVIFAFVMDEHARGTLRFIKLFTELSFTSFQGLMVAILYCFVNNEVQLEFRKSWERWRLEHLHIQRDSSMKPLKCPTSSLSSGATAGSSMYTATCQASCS
# Procedure, shortened: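 cAMP was measured by HTRF (d2/cryptate, 1 h RT, 665 and 615 nm). Beforehand, compounds in half-log series were incubated 30 min at 37 °C with GLP-1R/CRE-Luc HEK293 cells (1000 per well) in IBMX (0.5 mM)-containing DPBS/BSA. Activity scaled between vehicle and maximal control.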
# [1] = Caco-2 permeability / efflux study; format: in vitro ADME; details: human; for efflux ratio at 2 h, 10 μM: Caco-2, pH 7.4, Caco-2 efflux ratio; for Papp at 2 h, 10 μM: Caco-2, pH 7.4, 10 μM, 37° C., pH 7.4, 0.5% BSA, read-out: Caco-2 Perm
# Method: (§1) Incubations with Caco-2 cell monolayers were performed in duplicate in a 96-well Transwell plate. Transport buffer solution (HBSS, 10 mM HEPES, pH 7.4, with 0.5% BSA) containing test article (10 μM), and either the control compounds metoprolol (10 μM), cimetidine (10 μM) and erythromycin (10 μM), was added to appropriate donor wells of the apical or basolateral plate. The transport buffer with DMSO was added to appropriate wells of receiver wells. Following incubation at 37° C. for 2 hours, the cell plates were removed and 50 μL samples from both apical and basolateral sides were transferred into new 96-well plates. Subsequently, 200 μL of acetonitrile containing internal standard was added to all samples to precipitate protein prior to analysis by UPLC-MS/MS. Lucifer yellow was used as a marker to confirm the integrity of the cell monolayers after 2 hours incubation.
# Caco-2 cell monolayers = test: Caco-2 permeability / efflux study; format: in vitro ADME; details: 10 μM, 2 hours; for Caco-2 Perm: 37° C., pH 7.4, 0.5% BSA
# Method: as §1
# [2] = Rat IV/PO PK study, Method A; format: in vivo, male Sprague Dawley (SD) rats; details: for AUC (ng · h/mL)_free form/dose / AUC / Cmax: PO; for AUC (ng · h/mL)_free form/dose: 5 mpk, free form; for half-life / bioavailability / AUC / Cmax: male, Sprague Dawley, plasma; for half-life: 1 mg/kg, elimination half life (IV); for half-life / bioavailability: Method A; for bioavailability: PO vs IV, read-out: Bioavailablility (% F); for AUC / Cmax: 5 mg/kg, *obtained under method 3A
# Method: Pharmacokinetics (PK) study was conducted on male Sprague Dawley (SD) rats by two delivery routes intravenous (IV) and/or oral gavage (PO). Rats in IV route (n=3) were free access to food and water. Rats in PO route (n=3) were fasted overnight and fed at 4 hrs post dosing. Test article was formulated in solution (10% solutol HS 15 in saline) for IV route and solution or suspension (10% solutol HS 15 in saline/water) for PO route, respectively. On the day of experiment, test article was administered via vein (e.g. foot dorsal vein) injection (commonly at 1 mg/kg and 5 mL/kg) for IV route or via oral gavage (commonly at 2 or 5 mg/kg and 5 mL/kg) for PO route, respectively. Blood samples were collected via serial bleeding at ˜8 time points from 0.083 to 24 hrs post dose. Approximate 150 μL of blood/time point was collected into K2EDTA tube via tail vein or jugular vein. Blood samples were put on wet ice and centrifuged to obtain plasma samples and plasma samples were submitted to LC-MS/MS for sample analysis. Pharmacokinetics parameters, including elimination half life (t1/2) (IV), area under the curve (AUC) and oral bioavailability (F %), etc. were calculated by non-compartmental model using WinNonlin.
# [3] = Rat PO PK study, Method B; format: in vivo, male Sprague Dawley (SD) rats; details: for rat PK exposure compared with C-5 and C-6: 5 to 100 mg/kg; for rat PK dose proportionality of exposure: free form, same formulation; for AUC / Cmax: male, Sprague Dawley, plasma
# Method: Pharmacokinetics (PK) study was conducted on male Sprague Dawley (SD) rats by oral gavage (PO). Rats in PO route (n=3) were free access to food and water. […] On the day of experiment, test article was administered via oral gavage (commonly at 10, 30, or 100 mg/kg, with dose volume as 10 mL/kg). Blood samples were collected via serial bleeding at ˜8 time points from 0.25 to 24 hrs post dose. Approximate 150 μL of blood/time point was collected into KzEDTA tube via tail vein or jugular vein. Blood samples were put on wet ice and centrifuged to obtain plasma samples and plasma samples were submitted to LC-MS/MS for sample analysis. Pharmiacokinetics parameters, including Cmax, and area under the curve (AUC), etc. were calculated by non-compartmental model using WinNonlin.
# [4] = Table 3, HEK293/GLP1R/CRE-LUC cells, 30 min
# [5] = 30 mg/kg, 20% solutol HS 15 in water
# [6] = 100 mg/kg, 20% solutol HS 15 in water
Structure (SMILES),solubility at 4 h (FaSSIF solubility) [µM],EC50 (GLP-1 Receptor; [4]) [nM],EC50 (GLP-1 Receptor; Table 4) [nM],"efflux ratio at 2 h, 10 μM [1]",AUC (ng · h/mL)_free form/dose [2],half-life [2] [h],bioavailability [2] [%],AUC [2] [ng·h/mL],Cmax [2] [ng/mL],"Papp at 2 h, 10 μM [1] [×10⁻⁶ cm/s]",rat PK exposure compared with C-5 and C-6 [3],"AUC ([3]; 30 mg/kg, 10% solutol HS 15) [ng·h/mL]","Cmax ([3]; 30 mg/kg, 10% solutol HS 15) [ng/mL]","AUC ([3]; 100 mg/kg, 10% solutol HS 15) [ng·h/mL]","Cmax ([3]; 100 mg/kg, 10% solutol HS 15) [ng/mL]",rat PK dose proportionality of exposure [3],other results
"Cc1cc(-n2nc3c(c2-n2ccn(-c4ccc(S5(=O)=NCCC5)cc4)c2=O)[C@H](C)N(C(=O)c2cc4cc(C5CCOCC5)ccc4n2[C@@]2(c4noc(=O)[nH]4)C[C@@H]2C)CC3)cc(C)c1F (single isomer, unassigned) [Compound 142]",8.07,0.045,0.063,> 156,–,–,–,–,–,–,–,–,–,–,–,–,Caco-2 Perm (Caco-2 cell monolayers): < 0.05 ×10⁻⁶ cm/s
"Cc1cc(-n2nc3c(c2-n2ccn(-c4ccc(S5(=O)=NCCC5)cc4)c2=O)[C@H](C)N(C(=O)c2cc4cc(C5CCOCC5)ccc4n2[C@@]2(c4noc(=O)[nH]4)C[C@@H]2C)CC3)cc(C)c1F (single isomer, unassigned) [Compound 143]",–,0.019,0.019,–,–,–,–,–,–,–,–,–,–,–,–,–,"Solubility (FaSSIF, μM) (FaSSIF solubility; 25° C., 4 hours): 4.98 µM; Caco-2 Perm (Caco-2 cell monolayers): 0.12 ×10⁻⁶ cm/s; Efflux (Caco-2 cell monolayers; Caco-2 efflux ratio): 99.3"
"CCS(=O)(=NC)c1ccc(-n2ccn(-c3c4c(nn3-c3cc(C)c(F)c(C)c3)CCN(C(=O)c3cc5cc([C@H]6CCOC(C)(C)C6)ccc5n3[C@@]3(c5noc(=O)[nH]5)C[C@@H]3C)[C@H]4C)c2=O)c(F)c1 (single isomer, unassigned) [Compound 164]",8.9,0.024,0.024,5.5,"6,094/5 mpk ng · h/mL",2.4,29.4,9540,1880,0.62,higher exposure than C-5 and C-6,–,–,–,–,good rat PK dose proportionality from 5 to 100 mg/kg,"AUC [3, 5]: 66200 ng·h/mL; Cmax [3, 5]: 5400 ng/mL; AUC [3, 6]: 173000 ng·h/mL; Cmax [3, 6]: 11200 ng/mL"

# Continued, in another order:
solubility at 4 h (FaSSIF solubility) [µM],EC50 (GLP-1 Receptor; [4]) [nM],EC50 (GLP-1 Receptor; Table 4) [nM],"efflux ratio at 2 h, 10 μM [1]",AUC (ng · h/mL)_free form/dose [2],half-life [2] [h],bioavailability [2] [%],AUC [2] [ng·h/mL],Cmax [2] [ng/mL],"Papp at 2 h, 10 μM [1] [×10⁻⁶ cm/s]",rat PK exposure compared with C-5 and C-6 [3],"AUC ([3]; 30 mg/kg, 10% solutol HS 15) [ng·h/mL]","Cmax ([3]; 30 mg/kg, 10% solutol HS 15) [ng/mL]","AUC ([3]; 100 mg/kg, 10% solutol HS 15) [ng·h/mL]","Cmax ([3]; 100 mg/kg, 10% solutol HS 15) [ng/mL]",Structure (SMILES),rat PK dose proportionality of exposure [3],other results
30,0.034,0.03,5.4,"4,954/5 mpk ng · h/mL",3,28,6100,1790,0.61,higher exposure than C-5 and C-6,97000,8340,167000,13300,"CN=S(=O)(c1ccc(-n2ccn(-c3c4c(nn3-c3cc(C)c(F)c(C)c3)CCN(C(=O)c3cc5cc([C@H]6CCOC(C)(C)C6)ccc5n3[C@@]3(c5noc(=O)[nH]5)C[C@@H]3C)[C@H]4C)c2=O)c(F)c1)C1CC1 (single isomer, unassigned) [Compound 180]",good rat PK dose proportionality from 5 to 100 mg/kg,–
7.2,0.018,0.018,12,"9,545/5 mpk ng · h/mL",4.3,14,5000,774,0.22,higher exposure than C-5 and C-6,51100,3910,102000,7690,"CN=S(=O)(c1ccc(-n2ccn(-c3c4c(nn3-c3cc(C)c(F)c(C)c3)CCN(C(=O)c3cc5cc([C@H]6CCOC(C)(C)C6)ccc5n3[C@@]3(c5noc(=O)[nH]5)C[C@@H]3C)[C@H]4C)c2=O)c(F)c1C)C1CC1 (single isomer, unassigned) [Compound 195]",good rat PK dose proportionality from 5 to 100 mg/kg,–
26,0.11,0.11,9.8,"4,997/5 mpk ng · h/mL",4.78,25.5,7430,1060,0.19,higher exposure than C-5 and C-6,–,–,–,–,"CN=S(=O)(c1ccc(-n2ccn(-c3c4c(nn3-c3cc(C)c(F)c(C)c3)CCN(C(=O)c3cc5cc([C@H]6CCOC(C)(C)C6)ccc5n3[C@@]3(c5noc(=O)[nH]5)C[C@@H]3C)[C@H]4C)c2=O)c(F)c1NC)C1CC1 (single isomer, unassigned) [Compound 238]",good rat PK dose proportionality from 5 to 100 mg/kg,"AUC [3, 5]: 67500 ng·h/mL; Cmax [3, 5]: 4710 ng/mL; AUC [3, 6]: 124000 ng·h/mL; Cmax [3, 6]: 8680 ng/mL"
4.5,–,0.0675,26,"4,276/5 mpk ng · h/mL",3.1,47,4280,744,0.16,–,58800,7540,86000,7480,"Cc1cc(-n2nc3c(c2-n2ccn(-c4ccc5c(cnn5C)c4F)c2=O)[C@H](C)N(C(=O)c2cc4cc([C@H]5CCOC(C)(C)C5)ccn4c2C2(c4noc(=O)[nH]4)CC2)CC3)cc(C2CC2)c1F [Compound C-6, reference compound]",–,–
